Measured values published in the supplement of paper PMC10307832.

Experiments:
Experiment in all cases: relative viability (nuclei count vs DMSO), 5 days (fraction); higher = more cells survive
H3255 = system: H3255
In short: (§1)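 The day after seeding in 1536-well plates, lung cancer cell lines were treated by pin tool with a single drug, or with a fixed anchor-drug dose together with five library-drug doses (not always all listed) in √10 steps. After 5 days, a combined fix-and-stain solution (final 0.05% Triton X-100, 1% formaldehyde, 1 ug/ml Hoechst) was added. Nuclei counted on 4× images gave relative viability as treated counts over vehicle counts, reported as the median of duplicate plates.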

SK-MES-1 = system: SK-MES-1
In short: as §1

ChaGo-K-1 = system: ChaGo-K-1
In short: as §1

EMC-BAC-2 = system: EMC-BAC-2
In short: as §1

NCI-H1993 = system: NCI-H1993
In short: as §1

NCI-H2087 = system: NCI-H2087
In short: as §1

EPLC-272H = system: EPLC-272H
In short: as §1

NCI-H1944 = system: NCI-H1944
In short: as §1

NCI-H1395 = system: NCI-H1395
In short: as §1

NCI-H650 = system: NCI-H650
In short: as §1

LCLC-103H = system: LCLC-103H
In short: as §1

LCLC-97TM1 = system: LCLC-97TM1
In short: as §1

NCI-H322M = system: NCI-H322M
In short: as §1

NCI-H520 = system: NCI-H520
In short: as §1

NCI-H1793 = system: NCI-H1793
In short: as §1

NCI-H1651 = system: NCI-H1651
In short: as §1

NCI-H1355 = system: NCI-H1355
In short: as §1

HCC-44 = system: HCC-44
In short: as §1

NCI-H1563 = system: NCI-H1563
In short: as §1

HCC-827 = system: HCC-827
In short: as §1

NCI-H23 = system: NCI-H23
In short: as §1

NCI-H2405 = system: NCI-H2405
In short: as §1

UMC-11 = system: UMC-11
In short: as §1

NCI-H2085 = system: NCI-H2085
In short: as §1

`C[C@@H]1CN(CC(=O)Nc2ccc3c(c2)Cc2cccc(-c4cc(=O)cc(N5CCOCC5)o4)c2S3)C[C@H](C)O1` + N=C(N)NC(=N)NCCc1ccccc1 [Phenformin] (partner 250 µM) was tested, and the relative viability (H3255; first compound 0.04 µM) was 0.388, the relative viability (H3255; first compound 0.1265 µM) was 0.364 and the relative viability (H3255; first compound 0.4 µM) was 0.319. For the same compound, the relative viability (H3255; first compound 4 µM) was 0.367, the relative viability (SK-MES-1; first compound 0.04 µM) was 0.723 and the relative viability (SK-MES-1; first compound 0.1265 µM) was 0.652. For the same compound, the relative viability (SK-MES-1; first compound 0.4 µM) was 0.665, the relative viability (SK-MES-1; first compound 4 µM) was 0.546 and the relative viability (ChaGo-K-1; first compound 0.04 µM) was 0.48. The relative viability (ChaGo-K-1; first compound 0.1265 µM) was 0.45, the relative viability (ChaGo-K-1; first compound 0.4 µM) was 0.474 and the relative viability (ChaGo-K-1; first compound 4 µM) was 0.411. The relative viability (EMC-BAC-2; first compound 0.04 µM) was 0.56, the relative viability (EMC-BAC-2; first compound 0.1265 µM) was 0.566 and the relative viability (EMC-BAC-2; first compound 0.4 µM) was 0.495. The relative viability (EMC-BAC-2; first compound 4 µM) was 0.513, the relative viability (NCI-H1993; first compound 0.04 µM) was 0.532 and the relative viability (NCI-H1993; first compound 0.1265 µM) was 0.497. It also gave a relative viability (NCI-H1993; first compound 0.4 µM) of 0.481, a relative viability (NCI-H1993; first compound 4 µM) of 0.498 and a relative viability (NCI-H2087; first compound 0.04 µM) of 0.458. The relative viability (NCI-H2087; first compound 0.1265 µM) was 0.451, the relative viability (NCI-H2087; first compound 0.4 µM) was 0.444 and the relative viability (NCI-H2087; first compound 4 µM) was 0.437. For the same compound, the relative viability (EPLC-272H; first compound 0.04 µM) was 0.278, the relative viability (EPLC-272H; first compound 0.1265 µM) was 0.274 and the relative viability (EPLC-272H; first compound 0.4 µM) was 0.307. The relative viability (EPLC-272H; first compound 4 µM) was 0.271, the relative viability (NCI-H1944; first compound 0.04 µM) was 0.191 and the relative viability (NCI-H1944; first compound 0.1265 µM) was 0.214. It also gave a relative viability (NCI-H1944; first compound 0.4 µM) of 0.23, a relative viability (NCI-H1944; first compound 4 µM) of 0.215 and a relative viability (NCI-H1395; first compound 0.04 µM) of 0.495. For the same compound, the relative viability (NCI-H1395; first compound 0.1265 µM) was 0.456, the relative viability (NCI-H1395; first compound 0.4 µM) was 0.417 and the relative viability (NCI-H1395; first compound 4 µM) was 0.405. The relative viability (NCI-H650; first compound 0.04 µM) was 0.417, the relative viability (NCI-H650; first compound 0.1265 µM) was 0.436 and the relative viability (NCI-H650; first compound 0.4 µM) was 0.436. The relative viability (NCI-H650; first compound 4 µM) was 0.33, the relative viability (LCLC-103H; first compound 0.04 µM) was 0.325 and the relative viability (LCLC-103H; first compound 0.1265 µM) was 0.299. For the same compound, the relative viability (LCLC-103H; first compound 0.4 µM) was 0.302, the relative viability (LCLC-103H; first compound 4 µM) was 0.331 and the relative viability (LCLC-97TM1; first compound 0.04 µM) was 0.354. For the same compound, the relative viability (LCLC-97TM1; first compound 0.1265 µM) was 0.469, the relative viability (LCLC-97TM1; first compound 0.4 µM) was 0.433 and the relative viability (LCLC-97TM1; first compound 4 µM) was 0.483. The relative viability (NCI-H322M; first compound 0.04 µM) was 0.701, the relative viability (NCI-H322M; first compound 0.1265 µM) was 0.74 and the relative viability (NCI-H322M; first compound 0.4 µM) was 0.729. For the same compound, the relative viability (NCI-H322M; first compound 4 µM) was 0.691, the relative viability (NCI-H520; first compound 0.04 µM) was 0.464 and the relative viability (NCI-H520; first compound 0.1265 µM) was 0.732. The relative viability (NCI-H520; first compound 0.4 µM) was 0.312, the relative viability (NCI-H520; first compound 4 µM) was 0.452 and the relative viability (NCI-H1793; first compound 0.04 µM) was 0.347. For the same compound, the relative viability (NCI-H1793; first compound 0.1265 µM) was 0.339, the relative viability (NCI-H1793; first compound 0.4 µM) was 0.272 and the relative viability (NCI-H1793; first compound 4 µM) was 0.273. For the same compound, the relative viability (NCI-H1651; first compound 0.04 µM) was 0.334, the relative viability (NCI-H1651; first compound 0.1265 µM) was 0.321 and the relative viability (NCI-H1651; first compound 0.4 µM) was 0.36. For the same compound, the relative viability (NCI-H1651; first compound 4 µM) was 0.313, the relative viability (NCI-H1355; first compound 0.04 µM) was 0.455 and the relative viability (NCI-H1355; first compound 0.1265 µM) was 0.482. The relative viability (NCI-H1355; first compound 0.4 µM) was 0.433, the relative viability (NCI-H1355; first compound 4 µM) was 0.43 and the relative viability (HCC-44; first compound 0.04 µM) was 0.176. It also gave a relative viability (HCC-44; first compound 0.1265 µM) of 0.233, a relative viability (HCC-44; first compound 0.4 µM) of 0.161 and a relative viability (HCC-44; first compound 4 µM) of 0.114. For the same compound, the relative viability (NCI-H1563; first compound 0.04 µM) was 0.692, the relative viability (NCI-H1563; first compound 0.1265 µM) was 0.636 and the relative viability (NCI-H1563; first compound 0.4 µM) was 0.659. The relative viability (NCI-H1563; first compound 4 µM) was 0.677, the relative viability (HCC-827; first compound 0.04 µM) was 0.429 and the relative viability (HCC-827; first compound 0.1265 µM) was 0.402. The relative viability (HCC-827; first compound 0.4 µM) was 0.401, the relative viability (HCC-827; first compound 4 µM) was 0.415 and the relative viability (NCI-H23; first compound 0.04 µM) was 0.719. The relative viability (NCI-H23; first compound 0.1265 µM) was 0.762, the relative viability (NCI-H23; first compound 0.4 µM) was 0.803 and the relative viability (NCI-H23; first compound 4 µM) was 0.733. It also gave a relative viability (NCI-H2405; first compound 0.04 µM) of 0.402, a relative viability (NCI-H2405; first compound 0.1265 µM) of 0.411 and a relative viability (NCI-H2405; first compound 0.4 µM) of 0.379. The relative viability (NCI-H2405; first compound 4 µM) was 0.487, the relative viability (UMC-11; first compound 0.04 µM) was 0.363 and the relative viability (UMC-11; first compound 0.1265 µM) was 0.33. It also gave a relative viability (UMC-11; first compound 0.4 µM) of 0.338, a relative viability (UMC-11; first compound 4 µM) of 0.288 and a relative viability (NCI-H2085; first compound 0.04 µM) of 0.763. For the same compound, the relative viability (NCI-H2085; first compound 0.1265 µM) was 0.732, the relative viability (NCI-H2085; first compound 0.4 µM) was 0.694 and the relative viability (NCI-H2085; first compound 4 µM) was 0.595.
